Test results as given in the supplement of paper PMC10307832.

Key:
Assay in all cases: relative viability (nuclei count vs DMSO), 5 days (fraction); higher = more cells survive
AZD8055 + Linsitinib = compound: COc1ccc(-c2ccc3c(N4CCOC[C@@H]4C)nc(N4CCOC[C@@H]4C)nc3n2)cc1CO [AZD8055] + C[C@]1(O)C[C@@H](c2nc(-c3ccc4ccc(-c5ccccc5)nc4c3)c3c(N)nccn32)C1 [Linsitinib] (partner 1 µM)
In short: (§1)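 Relative viability is defined as nuclei in treated wells over nuclei in vehicle wells. Duplicate plates were run and medians reported. Lung cancer cell lines in 1536-well plates were dosed by pin tool one day after seeding, with one drug or with a fixed anchor-drug dose plus five library-drug doses (not always all listed) in √10 steps, and nuclei were counted after 5 days.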

AZD8055 + Foretinib = compound: COc1ccc(-c2ccc3c(N4CCOC[C@@H]4C)nc(N4CCOC[C@@H]4C)nc3n2)cc1CO [AZD8055] + COc1cc2c(Oc3ccc(NC(=O)C4(C(=O)Nc5ccc(F)cc5)CC4)cc3F)ccnc2cc1OCCCN1CCOCC1 [Foretinib] (partner 0.25 µM)
In short: as §1

AZD8055 + Luminespib = compound: COc1ccc(-c2ccc3c(N4CCOC[C@@H]4C)nc(N4CCOC[C@@H]4C)nc3n2)cc1CO [AZD8055] + CCNC(=O)c1noc(-c2cc(C(C)C)c(O)cc2O)c1-c1ccc(CN2CCOCC2)cc1 [Luminespib] (partner 0.01 µM)
In short: as §1

AZD8055 + Navitoclax = compound: COc1ccc(-c2ccc3c(N4CCOC[C@@H]4C)nc(N4CCOC[C@@H]4C)nc3n2)cc1CO [AZD8055] + CC1(C)CCC(c2ccc(Cl)cc2)=C(CN2CCN(c3ccc(C(=O)NS(=O)(=O)c4ccc(N[C@H](CCN5CCOCC5)CSc5ccccc5)c(S(=O)(=O)C(F)(F)F)c4)cc3)CC2)C1 [Navitoclax] (partner 0.5 µM)
In short: as §1

| Cell Line | relative viability (AZD8055 + Linsitinib; first compound 0.01 µM) | relative viability (AZD8055 + Linsitinib; first compound 0.03162 µM) | relative viability (AZD8055 + Linsitinib; first compound 0.1 µM) | relative viability (AZD8055 + Linsitinib; first compound 0.3162 µM) | relative viability (AZD8055 + Linsitinib; first compound 1 µM) | relative viability (AZD8055 + Foretinib; first compound 0.01 µM) | relative viability (AZD8055 + Foretinib; first compound 0.03162 µM) | relative viability (AZD8055 + Foretinib; first compound 0.1 µM) | relative viability (AZD8055 + Foretinib; first compound 0.3162 µM) | relative viability (AZD8055 + Foretinib; first compound 1 µM) | relative viability (AZD8055 + Luminespib; first compound 0.01 µM) | relative viability (AZD8055 + Luminespib; first compound 0.03162 µM) | relative viability (AZD8055 + Luminespib; first compound 0.1 µM) | relative viability (AZD8055 + Luminespib; first compound 0.3162 µM) | relative viability (AZD8055 + Luminespib; first compound 1 µM) | relative viability (AZD8055 + Navitoclax; first compound 0.01 µM) | relative viability (AZD8055 + Navitoclax; first compound 0.03162 µM) | relative viability (AZD8055 + Navitoclax; first compound 0.1 µM) | relative viability (AZD8055 + Navitoclax; first compound 0.3162 µM) | relative viability (AZD8055 + Navitoclax; first compound 1 µM) |
| --- | --- | --- | --- | --- | --- | --- | --- | --- | --- | --- | --- | --- | --- | --- | --- | --- | --- | --- | --- | --- |
| NCI-H358 | 0.728 | 0.561 | 0.429 | 0.209 | 0.236 | 1.03 | 0.887 | 0.585 | 0.264 | 0.181 | 0.33 | 0.336 | 0.392 | 0.123 | 0.0919 |  |  |  |  |  |
| NCI-H522 |  |  |  |  |  |  |  |  |  |  | 1.19 | 0.994 | 0.744 | 0.581 | 0.553 |  |  |  |  |  |
| NCI-H650 | 0.889 | 0.575 | 0.556 | 0.342 | 0.293 | 1.12 | 0.995 | 0.773 | 0.541 | 0.368 | 0.998 | 0.768 | 0.691 | 0.436 | 0.295 |  |  |  |  |  |
| NCI-H661 | 0.567 | 0.41 | 0.516 | 0.253 | 0.293 | 1.06 | 0.99 | 0.795 | 0.5 | 0.425 | 0.971 | 0.906 | 0.886 | 0.424 | 0.367 |  |  |  |  |  |
| NCI-H1299 | 1.08 | 0.948 | 0.798 | 0.436 | 0.295 | 1.19 | 1.18 | 1.14 | 0.863 | 0.528 |  |  |  |  |  | 1.05 | 1.08 | 1.02 | 0.939 | 0.67 |
| NCI-H1563 | 0.971 | 0.802 | 0.699 | 0.625 | 0.743 | 0.913 | 0.723 | 0.725 | 0.635 | 0.645 | 0.594 | 0.536 | 0.541 | 0.496 | 0.49 |  |  |  |  |  |
| NCI-H1650 |  |  |  |  |  | 0.998 | 1.02 | 0.886 | 0.778 | 0.449 | 0.204 | 0.196 | 0.206 | 0.203 | 0.253 | 1.01 | 1.15 | 1.07 | 0.519 | 0.502 |
| NCI-H1703 | 0.514 | 0.576 | 0.623 | 0.102 | 0.29 | 0.34 | 0.32 | 0.306 | 0.301 | 0.226 |  |  |  |  |  | 0.944 | 0.702 | 0.517 | 0.292 | 0.337 |
| NCI-H1792 | 0.292 | 0.233 | 0.223 | 0.128 | 0.101 |  |  |  |  |  | 0.38 | 0.415 | 0.218 | 0.295 | 0.127 | 0.89 | 0.518 | 0.51 | 0.13 | 0.086 |
| NCI-H2170 |  |  |  |  |  | 1.07 | 1.04 | 0.868 | 0.451 | 0.397 | 0.633 | 0.715 | 0.403 | 0.233 | 0.165 | 0.59 | 0.517 | 0.295 | 0.189 | 0.191 |
| NCI-H2342 |  |  |  |  |  | 0.999 | 1.05 | 0.801 | 0.538 | 0.578 | 0.579 | 0.535 | 0.599 | 0.419 | 0.424 |  |  |  |  |  |
